From the NIST ThermoML archive (doi:10.1016/j.jct.2018.05.012)

Experiment: xn = mol fraction of the nth substance listed
Details: 100 kPa, Liquid; for speed of sound: Frequency=3 MHz, Single path-length method; for mass density: Vibrating tube method

C1COCO1 [1,3-dioxolane] + C1COCCO1
Details	mass density, 293.15 K [kg/m3]	mass density, 298.15 K [kg/m3]	mass density, 303.15 K [kg/m3]	mass density, 308.15 K [kg/m3]	speed of sound, 293.15 K [m/s]	speed of sound, 298.15 K [m/s]	speed of sound, 303.15 K [m/s]	speed of sound, 308.15 K [m/s]
x1 = 0.1184	1036.5	1030.8	1025.1	1019.3	1367	1345.1	1323.5	1301.6
x1 = 0.1694	1037.8	1032.1	1026.4	1020.6	1366.7	1344.8	1323.1	1301.2
x1 = 0.2145	1039	1033.3	1027.5	1021.7	1366.4	1344.5	1322.8	1300.8
x1 = 0.2632	1040.4	1034.6	1028.8	1022.9	1366.1	1344.1	1322.4	1300.5
x1 = 0.3154	1041.8	1036.1	1030.2	1024.3	1365.8	1343.8	1322.1	1300.1
x1 = 0.3689	1043.3	1037.6	1031.7	1025.8	1365.5	1343.5	1321.7	1299.7
x1 = 0.4184	1044.8	1039	1033.1	1027.2	1365.2	1343.1	1321.3	1299.4
x1 = 0.4697	1046.3	1040.5	1034.6	1028.6	1364.9	1342.8	1321	1299
x1 = 0.5124	1047.6	1041.8	1035.8	1029.9	1364.6	1342.5	1320.7	1298.7
x1 = 0.5674	1049.4	1043.6	1037.5	1031.5	1364.3	1342.1	1320.3	1298.3
x1 = 0.6282	1051.4	1045.5	1039.5	1033.4	1363.9	1341.7	1319.8	1297.9
x1 = 0.6734	1052.9	1047	1040.9	1034.8	1363.6	1341.4	1319.5	1297.5
x1 = 0.7231	1054.6	1048.7	1042.6	1036.5	1363.3	1341	1319.1	1297.1
x1 = 0.7626	1055.9	1050.1	1043.9	1037.8	1363	1340.7	1318.8	1296.8
x1 = 0.7992	1057.2	1051.4	1045.2	1039	1362.7	1340.4	1318.5	1296.5
x1 = 0.8486	1059	1053.1	1046.9	1040.7	1362.4	1340	1318.1	1296.1
x1 = 0.8815	1060.2	1054.3	1048.1	1041.9	1362.1	1339.8	1317.8	1295.8
x1 = 0.9102	1061.3	1055.4	1049.1	1042.9	1361.9	1339.5	1317.5	1295.5
